From paper PMC3063246, “Corticotropin Releasing Factor-Induced CREB Activation in Striatal Neurons Occurs via a Novel Gβγ Signaling Pathway” (PLoS ONE, 2011)
pIC50: −log10 of the molar value. “Also recorded” adds a separate entry of the source.

Experiments:
[1] = tested on: CRF-induced CREB phosphorylation in striatal neurons; test: Block of CRF-induced CREB phosphorylation; type: cell-based, rat; conditions: 30 min prior and concurrently, CRF 15 min
[2] = tested on: ISO-induced CREB phosphorylation in striatal neurons; parameters: dose or concentration left out as unconfirmed; conditions: ref unpublished observations; cited from earlier work
From the text: (§1) Supplement pone.0018114.s002.xlsx, sheet "Sheet1" | column: Target (notes)

[3] = tested on: MAPKAP; conditions: cited from earlier work
From the text: as §1

[4] = tested on: PKB; conditions: cited from earlier work
From the text: as §1

[5] = tested on: ROCK-II; conditions: cited from earlier work
From the text: as §1

[6] = tested on: PKA; conditions: cited from earlier work
From the text: as §1

[7] = tested on: forskolin (FSK)-induced CREB phosphorylation; test: Block of forskolin-induced CREB phosphorylation; type: cell-based, rat; conditions: H89 2 µM; forskolin 25 µM
Procedure: (§2) Protocols followed are those described previously, using a well-characterized commercially available monoclonal antibody directed against the Ser133 phosphorylated version of CREB (see below), [66], [70]–[72]. Briefly, cultured striatal neurons (8–10 d.i.v.) were incubated in a Tyrode's solution containing TTX (1 µM) and AP-5 (25 µM) at room temperature for 1.5 hr. Unless noted otherwise, cell stimulations were performed as follows: vehicle (15 min); agonist stimulations were 15 min, antagonist exposure was 30 min prior to agonist stimulation, except PTX and CTX (18 hr pre-treatment), and concurrently with agonist stimulation. […] Data were quantified with Leica LAS AF (version 1.9.0; Leica).
(§3) The confocal excitation and detection settings for each experiment were determined using coverslips stimulated for 5 min with 60 mM potassium (60 K) to establish a “ceiling” for pCREB intensity. A baseline was determined via the vehicle (NS) group, so that each assay has an internal control. […] Neurons were readily discriminated from glia via size and morphology (see Figure 1 and Figure S1) and selected randomly using α-tubulin or MAP2 fluorescence, allowing the experimenter to remain blind to the CREB or pCREB signal. […] To analyze pCREB fluorescence intensity, the α-tubulin or MAP2 staining was used to draw a region of interested (ROI) of interest outlining the nucleus of each neuron. […]

[8] = tested on: BDNF-induced NFAT activation; conditions: 100 nM; cited from earlier work
From the text: as §1

[9] = tested on: Ras; conditions: cited from earlier work
From the text: as §1

[10] = tested on: PI3K; conditions: cited from earlier work
From the text: as §1

[11] = tested on: Rac1; parameters: dose or concentration left out as unconfirmed; conditions: cited from earlier work
From the text: as §1

[12] = tested on: ISO-induced CREB phosphorylation in striatal neurons; test: Block of isoproterenol-induced CREB phosphorylation; type: cell-based, rat; conditions: gallein 75 µM; ISO 10 µM
Procedure: as §2, §3

SMILES: O=C1Nc2ccc(I)cc2/C1=C/c1cc(Br)c(O)c(Br)c1 [GW5074]
- effect on CRF-induced CREB phosphorylation ([1]; inhibitor 1 µM, data not shown): failed to affect CRF-induced CREB phosphorylation
- effect on ISO-induced pCREB in striatal neurons [2]: c-Raf (1 mM blocks ISO-induced pCREB in striatal neurons)

SMILES: O=S(=O)(NCCNC/C=C/c1ccc(Br)cc1)c1cccc2cnccc12 [H89]
- pIC50 [3]: < 6.57
- pIC50 [5]: < 6.57
- pIC50 [6]: 6.87
- effect on CRF-induced CREB phosphorylation ([1]; inhibitor 2 µM): failed to block CRF-induced CREB phosphorylation
- effect on forskolin-induced CREB phosphorylation [7]: attenuated forskolin (FSK)-induced CREB phosphorylation

SMILES: COC(=O)[C@@]1(O)C[C@H]2O[C@]1(C)n1c3ccccc3c3c4c(c5c6ccccc6n2c5c31)C(=O)NC4 [K252a]
- effect on BDNF-induced NFAT activation [8]: Tyrosine Kinase (100 nM prevents BDNF-induced NFAT activation)
- effect on CRF-induced CREB phosphorylation ([1]; inhibitor 100 nM): failed to affect CRF-induced CREB phosphorylation

SMILES: Cc1cc(C(=O)N2CCN(c3cccc(Cl)c3)CC2)n(-c2ccccc2)n1 [XRP44X]
- pIC50 [9]: 7.70 to 8.00
- effect on CRF-induced CREB phosphorylation ([1]; inhibitor 2 µM): failed to affect CRF-induced CREB phosphorylation

SMILES: O=C1OC2(c3ccccc31)c1ccc(O)c(O)c1Oc1c2ccc(O)c1O [gallein]
- PI3K inhibition [10]: inhibits PI3K
- effect on CRF-induced CREB phosphorylation ([1]; inhibitor 75 µM): CRF failed to induce CREB phosphorylation in the presence of this drug; also recorded: eliminated CRF-induced CREB phosphorylation
- Rac1 activation inhibition [11]: inhibits PI3K and Rac1 activation
- effect on ISO-induced CREB phosphorylation [12]: should not affect ISO-dependent CREB phosphorylation. Indeed, this was in fact the case; also recorded: had no effect on CREB phosphorylation
